The source of these data is patent publication US20180002366A1, “4'-SUBSTITUTED NUCLEOSIDE REVERSE TRANSCRIPTASE INHIBITORS” (MERCK SHARP & DOHME CORP., priority 2014, published 2018).

Series [1] addresses T1, adenosine deaminase (ADA) type 1 (Homo sapiens, UniProt P00813).
T1 sequence (P00813 1-363): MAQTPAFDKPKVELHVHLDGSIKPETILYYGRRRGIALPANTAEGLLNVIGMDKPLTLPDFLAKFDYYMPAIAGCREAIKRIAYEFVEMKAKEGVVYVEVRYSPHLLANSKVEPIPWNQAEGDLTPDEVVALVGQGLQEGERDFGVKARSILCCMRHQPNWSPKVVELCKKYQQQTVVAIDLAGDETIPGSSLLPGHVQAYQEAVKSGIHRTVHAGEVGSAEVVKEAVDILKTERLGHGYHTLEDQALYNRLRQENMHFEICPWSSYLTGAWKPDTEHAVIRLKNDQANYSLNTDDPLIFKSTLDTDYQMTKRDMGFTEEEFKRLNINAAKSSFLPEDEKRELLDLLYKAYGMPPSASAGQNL
The series is described as follows: Adenosine Deaminase (ADA) Half-Life. The format is in vitro ADME. Particulars: human, human adenosine deaminase (ADA) type 1 in Tris-HCl buffer; time for 50% conversion to inosine product; Tris-HCl buffer pH 7.5, 40° C., LCMS. Here is the method: (§1) The data in Table 5 was generated by reacting a substrate compound with human ADA type 1 in the presence of Tris-HCl buffer (pH 7.5) at 40° C. and monitoring by LCMS for consumption of starting material. The time necessary for 50% conversion to the corresponding inosine product is noted as the T1/2 in Table 5. It is known that deamination by adenosine deaminase decreases the therapeutic potential of adenosine-like nucleoside inhibitors especially in vivo (see references below). […] It is possible that compounds that are more resistant to ADA will have better pharmacokinetic properties.
(§2) Tris-HCl buffer (pH 7.5, 5 mL) was injected into a 25-mL round-bottom flask. The mixture was heated to reflux for 30 minutes. Then the mixture was cooled to 30° C. and (2R,3S,5R)-5-(4-amino-5-fluoro-7H-pyrrolo[2,3-d]pyrimidin-7-yl)-2-ethynyl-2-(hydroxymethyl)tetrahydrofuran-3-ol (Example compound 2, 7 mg, 0.024 mmol) was added, followed by the addition of adenosine deaminase (3 mg, ˜33 units). The resulting mixture was stirred at 40° C. and stirred for 4 days. The reaction mixture was concentrated under vacuum and the residue was purified by preparative-HPLC with the following conditions: Column: X-Bridge C18, 19*150 mm, 5 um; mobile phase, water with 10 mmol ammonium bicarbonate and acetonitrile (6% acetonitrile up to 30% in 5 min, hold 95% for 2 min, down to 40% in 2 min); Detector, uv 254&220 nm. The product-containing fractions were collected and lyophilized to give the title compound 2A as a solid. ^1H-NMR: (400 MHz, d6-DMSO, ppm): δ 11.58 (brs, 1H), 7.86 (s, 1H), 7.22 (d, J=1.6 Hz, 1H), 6.44 (t, J=5.8 Hz, 1H), 5.47 (d, J=4.8 Hz, 1H), 5.26-5.22 (m, 1H), 4.39-4.35 (m, 1H), 3.55-3.45 (m, 2H), 3.42 (s, 1H), 2.41-2.24 (m, 2H). ^19F-NMR: (376 MHz, d6-DMSO, ppm): δ −165.50 (s, 1F). LC-MS: (ES, m/z): 294.15 [M+H]^+.
(§3) Using the described procedures, conversion of compounds 4, 8 and 9 to 4A, 8A and 9A, respectively, was not detected (NA=substrate insensitive to adenosine deaminase).

Series [2] deals with HIV-1 (H9IIIB virus) replication in MT4-GFP cells. The series is described as follows: Viking Assay: antiviral potency in a multiple round HIV-1 infection assay. The format is cell-based. The note with it: inhibition of reproductive ratio R0 between ~48 h and ~72 h post-infection, read-out: Viking, IC50 (10% NHS). Here is the method:
Assessing Antiviral Potency in a Multiple Round HIV-1 Infection Assay.
Cells were then washed and re-suspended in either RPMI 1640 containing 10% or 50% normal human serum at 1.6×10^5 cells/mL (10% or 50% NHS conditions) or in 100% normal human serum at 2×10^5 cells/mL (100% NHS conditions).
The increase in the number of green cells over ˜24 h period gives the reproductive ratio, R0, which is typically 5-15 and has been shown experimentally to be in logarithmic phase (data not shown). Inhibition of R0 is calculated for each well, and IC50s determined by non-linear 4-parameter curve fitting.

The test system is the same in series [3]. The series is described as follows: Antiviral Persistence assay. Particulars: for Fold shift IC50 72 h/24 h: ratio of IC50 72 h to IC50 24 h. Here is the method:
HIV-1 replication was monitored using MT4-gag-GFP clone D3 (hereafter designate MT4-GFP), which are MT-4 cells modified to harbor a GFP reporter gene, the expression of which is dependent on the HIV-1 expressed proteins tat and rev. Productive infection of an MT4-GFP cell with HIV-1 results in GFP expression approximately 24 h post-infection. MT4-GFP cells were maintained at 37° C./5% CO2/90% relative humidity in RPMI 1640 supplemented with 10% fetal bovine serum, 100 U/mL penicillin/streptomycin, and 400 μg/mL G418 to maintain the reporter gene. For 72 hour time point persistence assay (72 h plate) and 24 hour time point control assay (24 h plate), MT4-GFP cells were washed and re-suspended in RPMI 1640 containing 10% normal human serum at either 1.6×10^5 or 2.4×10^5 cells/mL (10% NHS). Compound plates were prepared by dispensing compounds dissolved in DMSO into wells of 384 well cell culture plates ([…]) using an ECHO acoustic dispenser. Each compound was tested in a 10 point serial 3-fold dilution (typical final concentrations: 4.2 μM-0.21 nM). Controls included no inhibitor (DMSO only) and a combination of three antiviral agents (efavirenz, indinavir, and an integrase strand transfer inhibitor at final concentrations of 4 μM each). Cells were added (50 μL/well) to compound plates and were incubated at 37° C./5% CO2/90% relative humidity for 24 hours. The cells were washed with 5×40 uL of RPMI 1640 supplemented with 10% NHS and 100 U/mL penicillin/streptomycin. 72 h plate was return back to 37° C. incubator for additional 48 hour incubation. 40 uL of the cells from each well of the 24 h plate or the 72 h plate (after 48 hour incubation post wash) were transferred to a poly-D-lysine coated plate. The cells were then infected with H9IIIB virus at an approximate multiplicity of infection of 0.1 in the same incubation conditions.
Infected cells were quantified at ˜24 h post-infection, by counting the number of green cells in each well using an Acumen eX3 scanner. IC50s for the compounds in Table 4 were determined by non-linear 4-parameter curve fitting.
The antiviral persistence assay is meant to assess for the persistence of antiviral activity upon removal of the nucleoside. […] The publication AIDS Research and Therapy, 2009, 6:5, highlights the value of antiviral persistence.

A further series concerns the target T2, human ADA type 1 (Homo sapiens, UniProt P00813).
T2 sequence (P00813 1-363): T1 sequence (P00813 1-363)
The series is described as follows: Adenosine Deaminase (ADA) Half-Life. It counts as in vitro ADME. Particulars: Tris-HCl buffer pH 7.5, 40° C., procedures as for compound 2 to 2A. Here is the method: as §1, §2, §3

In a further series the test system is MT4-GFP cells. The series is described as follows: CTG Assay: cytotoxicity in CellTiter-Glo Luminescent Cell Viability Assay. It counts as cell-based. Particulars: 10% normal human serum, 48 h incubation, top concentration 8.4 μM. Here is the method:
Assessing Cytotoxicity in CellTiter-Glo Luminescent Cell Viability Assay (CTG).
Cells were then washed and resuspended in RPMI 1640 containing 10% normal human serum at a density of 0.8×10^5 cells/mL. […] Controls included DMSO. […] CTG reagent (Promega, G7573) was added to the cell plates after 48 h incubation according to the manufacturer's description. Luminescence signals were recorded on EnVision plate reader (PerkinElmer). LD50s were determined by non-linear 4-parameter curve fitting. The resulting data is shown in Table 3 with the marketed HIV nucleoside reverse transcriptase inhibitor AZT (azidothymidine, zidovudine) included as a control.
On the technique in general: Cellular ATP, detected with luciferase, serves as a proxy for viable cell number.

[4] abbreviates: Human immunodeficiency virus 1, 10% normal human serum.
Setting [5] is: Human immunodeficiency virus 1, 24 h, read-out: IC50 24 h (nM).
Where [6] appears, read: Human immunodeficiency virus 1, read-out: IC50 72 h (nM).

Turning to `Nc1ncnc2c1ncn2[C@H]1C[C@H](O)[C@@H](CO)O1` [Deoxy- adenosine, deoxyadenosine, reference compound], the half-life at 4.8 mM in series [1] is below 0.167 h.
As for `C#C[C@]1(CO)O[C@@H](n2cnc3c(N)ncnc32)C[C@@H]1O` [EDA, (2R,3S,5R)-5-(6-amino-9H-purin-9-yl)-2-ethynyl-2-(hydroxymethyl)tetrahydrofuran-3-ol, reference compound], the half-life at 4.8 mM in series [1] is below 1 h.
As to `C#C[C@]1(CO)O[C@@H](n2ccc3c(N)ncnc32)C[C@@H]1O` [Example 1, (2R,3S,5R)-5-(4-amino-7H-pyrrolo[2,3-d]pyrimidin-7-yl)-2-ethynyl-2-(hydroxymethyl)tetrahydrofuran-3-ol], the IC50 in series [2] (setting [4]) is 1.3 nM; in series [3] (setting [5]), 0.8 nM; in series [3] (setting [6]), 36 nM. Also, the “Fold shift IC50 72 h/24 h” value in series [3] is listed as 45. In addition, the half-life at 4.8 mM in series [1] is 288 h.
Taken in the same sequence, the figures for `C#C[C@]1(CO)O[C@@H](n2cc(F)c3c(N)ncnc32)C[C@@H]1O` [Example 2, (2R,3S,5R)-5-(4-amino-5-fluoro-7H-pyrrolo[2,3-d]pyrimidin-7-yl)-2-ethynyl-2-(hydroxymethyl)tetrahydrofuran-3-ol] were 1.6 nM, 6.6 nM, 193 nM, 29 and 16 h.
Take `C#C[C@]1(CO)O[C@@H](n2ccc3c(N)nc(Cl)nc32)C[C@@H]1O` [Example 4, (2R,3S,5R)-5-(4-amino-2-chloro-7H-pyrrolo[2,3-d]pyrimidin-7-yl)-2-ethynyl-2-(hydroxymethyl)tetrahydrofuran-3-ol]: the IC50 in series [2] (setting [4]) was 4 nM; in series [3] (setting [5]), 9.6 nM; in series [3] (setting [6]), 360 nM. Also, in series [3], the “Fold shift IC50 72 h/24 h” value was 37.5. For the same compound, the “conversion to the corresponding inosine product by adenosine deaminase” value at human ADA type 1 is reported as “not detected”.
`C#C[C@]1(CO)O[C@@H](n2ccc3c(N)nc(N)nc32)C[C@@H]1O` [Example 8, (2R,3S,5R)-5-(2,4-diamino-7H-pyrrolo[2,3-d]pyrimidin-7-yl)-2-ethynyl-2-(hydroxymethyl)tetrahydrofuran-3-ol]: the IC50 in series [2] (setting [4]) is 194 nM; in series [3] (setting [5]), 840 nM; in series [3] (setting [6]) it was 29000 nM. Moreover, the “Fold shift IC50 72 h/24 h” value in series [3] was determined as 34.5. For the same compound, on human ADA type 1, the “conversion to the corresponding inosine product by adenosine deaminase” value is “not detected”.
Taken in the same sequence, the figures for `C#C[C@]1(CO)O[C@@H](n2ccc3c(N)nc(F)nc32)C[C@@H]1O` [Example 9, (2R,3S,5R)-5-(4-amino-2-fluoro-7H-pyrrolo[2,3-d]pyrimidin-7-yl)-2-ethynyl-2-(hydroxymethyl)tetrahydrofuran-3-ol] were 10.2 nM, 37 nM, 270 nM, 7.3 and “not detected”.
In the case of `C#C[C@]1(CO)O[C@@H](c2ccc3c(N)ncnn23)C[C@@H]1O` [Example 11, (2R,3S,5R)-5-(4-aminopyrrolo[2,1-f][1,2,4]triazin-7-yl)-2-ethynyl-2-(hydroxymethyl)tetrahydrofuran-3-ol], the IC50 in series [2] (setting [4]) is 17.2 nM; in series [3] (setting [5]), 12.4 nM; in series [3] (setting [6]) it was 1950 nM. Also, the “Fold shift IC50 72 h/24 h” value in series [3] worked out at 157. This compound gave a half-life at 4.8 mM in series [1] of 3 h.
Take `C#C[C@]1(CO)O[C@@H](c2cnc3c(N)ncnn23)C[C@@H]1O` [Example 22, (2R,3S,5R)-5-(4-aminoimidazo[2,1-f][1,2,4]triazin-7-yl)-2-ethynyl-2-(hydroxymethyl)tetrahydrofuran-3-ol]: the figures for the IC50 in series [2] (setting [4]), in series [3] (setting [5]) and in series [3] (setting [6]) were 38 nM, 38 nM and 350 nM, respectively. The “Fold shift IC50 72 h/24 h” value in series [3] came out at 9.2. Further, the half-life at 4.8 mM in series [1] worked out at 0.167 h.
Turning to `C#C[C@]1(CO)O[C@@H](c2cnn3c(N)ncnc23)C[C@@H]1O` [Example 23, (2R,3S,5R)-5-(4-aminopyrazolo[1,5-a][1,3,5]triazin-8-yl)-2-ethynyl-2-(hydroxymethyl)tetrahydrofuran-3-ol], the 50% inhibitory concentration (IC50) in series [2] (setting [4]) turned out to be 64 nM; in series [3] (setting [5]), 64 nM; in series [3] (setting [6]) it was 700 nM. For the same compound, in series [3], the “Fold shift IC50 72 h/24 h” value was determined as 10.9. In series [1], this compound registered a half-life at 4.8 mM of 0.167 h.
As for “(2R,3S,5R)-5-(4-aminopyrrolo[2,1-f][1,2,4]triazin-7-yl)-3-hydroxy-2-(hydroxymethyl)tetrahydrofuran-2-carbonitrile [Example 12]”, the IC50 in series [2] (10% normal human serum) is 735 nM; in series [3] (read-out: IC50 24 h, 24 h plate: cells incubated with compound 24 hours, washed, then infected, 10% NHS), 880 nM; in series [3] (read-out: IC50 72 h, 72 h plate: compound 24 hours, washed, additional 48 hour incubation, then infected, 10% NHS), 25000 nM. Besides, in the series with MT4-GFP cells, the LD50 was above 8.4 µM.

As a reminder, the half-life is how long it takes for the measured level to halve. Broadly, the IC50 is the concentration that gives 50% inhibition.
